From paper PMC10383271

How the values were obtained:
[1] = target: T1, human serum albumin (HSA) (Homo sapiens, UniProt P02768); assay: Circular dichroism spectroscopy of HSA, secondary structure; design: purchased Sigma-Aldrich Chemie GmbH; settings: for Change in % α-helix, (1:5) minus (1:0) / reduction in the percentage of α-helix: HSA
Procedure: When the small molecules interact with plasma proteins, changes in circular dichroism spectra are observed. Specific secondary structures such as α-helix or β-sheet have a characteristic band on the spectrum. For the first structure, two negative peaks near 209 and 220 nm are observed, while for the β-sheet, the negative band around 215 nm is present.
Circular dichroism (CD) spectra were measured on the Jasco J-1500 magnetic circular dichroism spectrometer (JASCO International CO., Tokyo, Japan) at room temperature with a 10 mm path length. […] The spectra were measured in the range of 205–250 nm at a scan rate speed of 50 nm/min, with a response time of 1 s. […] They were respectively added into 3 mL of protein solution successive portions of the solutions of the analyzed compounds. The analysis of the obtained results was performed using the CD Multivariate Calibration Creation and CD Multivariate SSE programs (JASCO International CO., Tokyo, Japan). Protein concentrations were converted here for mean residue molar concentrations.

[2] = test system: alpha-1-acid glycoprotein (AAG); assay: Fluorescence quenching titration of AAG
Procedure: Aex is the absorbance at excitation wavelengths, and Aem is the absorbance at emission wavelengths.
The correlation between the stability constant of complexes Kb and standard thermodynamic parameters enthalpy change (ΔH°), and entropy change (ΔS°) was determined by the van’t Hoff Equation (4):(4) logKb=−∆H^°/RT+∆S^°/R where R is the universal gas constant; the free energy change (ΔG°) can be calculated by following Equation (5):(5) ∆G^°=∆H^°−T∆S^°=−RTlnKb
The fluorescence study was performed on a Cary Eclipse 500 spectrophotometer (Agilent, Santa Clara, CA, USA). The spectra were recorded in a cuvette with 10 mm path length at an emission range of 300–500 nm, and the excitation wavelength was 280 nm.

[3] = target: T2, 15-LOX (Glycine max, UniProt P08170); assay: 15-LOX inhibition, Cayman's Lipoxygenase Inhibitor Screening Assay Kit
T2 sequence (P08170 1-839): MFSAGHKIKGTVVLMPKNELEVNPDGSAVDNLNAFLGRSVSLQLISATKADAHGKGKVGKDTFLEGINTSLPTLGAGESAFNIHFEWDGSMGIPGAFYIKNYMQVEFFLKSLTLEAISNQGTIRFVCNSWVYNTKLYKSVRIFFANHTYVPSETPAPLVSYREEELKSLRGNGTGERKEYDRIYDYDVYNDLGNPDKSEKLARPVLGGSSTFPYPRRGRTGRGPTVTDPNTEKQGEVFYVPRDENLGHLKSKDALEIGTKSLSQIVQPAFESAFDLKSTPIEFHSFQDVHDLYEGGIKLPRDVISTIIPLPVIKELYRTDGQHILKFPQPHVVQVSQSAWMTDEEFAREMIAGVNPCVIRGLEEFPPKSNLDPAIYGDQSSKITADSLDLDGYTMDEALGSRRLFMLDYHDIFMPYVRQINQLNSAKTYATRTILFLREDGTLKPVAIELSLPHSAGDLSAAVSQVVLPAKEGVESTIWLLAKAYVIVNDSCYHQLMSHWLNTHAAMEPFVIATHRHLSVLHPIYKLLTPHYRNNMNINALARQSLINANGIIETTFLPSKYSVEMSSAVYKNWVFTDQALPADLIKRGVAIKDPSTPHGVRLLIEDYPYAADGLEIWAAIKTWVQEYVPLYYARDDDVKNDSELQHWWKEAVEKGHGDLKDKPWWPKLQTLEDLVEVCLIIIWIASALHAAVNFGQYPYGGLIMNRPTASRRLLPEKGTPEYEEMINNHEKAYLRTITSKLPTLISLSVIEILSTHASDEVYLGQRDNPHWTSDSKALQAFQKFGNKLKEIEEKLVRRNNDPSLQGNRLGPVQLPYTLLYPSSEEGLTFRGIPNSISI

[4] = target: T1, human serum albumin (HSA); assay: Fluorescence quenching titration of HSA; settings: for Kd: logKb; for ΔG°: one value per compound, temperature not given; for ΔH° / ΔS°: van't Hoff

T1 sequence (P02768 25-609): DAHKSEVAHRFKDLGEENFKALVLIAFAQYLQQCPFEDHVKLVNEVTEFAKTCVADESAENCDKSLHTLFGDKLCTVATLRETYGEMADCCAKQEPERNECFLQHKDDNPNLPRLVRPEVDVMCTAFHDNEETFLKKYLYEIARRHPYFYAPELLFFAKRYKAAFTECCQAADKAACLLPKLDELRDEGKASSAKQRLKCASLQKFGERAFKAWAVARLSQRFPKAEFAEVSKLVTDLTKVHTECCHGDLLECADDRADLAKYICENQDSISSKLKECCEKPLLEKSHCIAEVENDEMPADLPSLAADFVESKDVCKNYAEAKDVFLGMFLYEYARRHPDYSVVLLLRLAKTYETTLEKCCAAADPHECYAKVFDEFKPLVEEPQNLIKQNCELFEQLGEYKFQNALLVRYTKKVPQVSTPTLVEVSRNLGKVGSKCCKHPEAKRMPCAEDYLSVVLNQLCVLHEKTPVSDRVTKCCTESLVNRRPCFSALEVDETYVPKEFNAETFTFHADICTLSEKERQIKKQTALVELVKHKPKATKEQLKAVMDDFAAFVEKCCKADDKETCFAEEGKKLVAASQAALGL

Structure (SMILES): Cc1c2c(OCC(=O)N/N=C/c3ccccc3)nn(C)c(=O)c2c(C)n1-c1ccccc1 [Compound 5b, N-[(Z/E)-benzylideneamino]-2-(3,5,7-trimethyl-4-oxo-6-phenyl-pyrrolo[3,4-d]pyridazin-1-yl)oxy-acetamide]
- Change in % α-helix, (1:5) minus (1:0) [1]: −2.4%
- reduction in the percentage of α-helix [1]: 2.4%
- % Other ([1]; HSA:compound molar ratio 1:0.5): 20.9%
- % α-Helix ([1]; HSA:compound molar ratio 1:0.5): 67.7%
- % β-Sheet ([1]; HSA:compound molar ratio 1:0.5): 2.2%
- % β-Turn ([1]; HSA:compound molar ratio 1:0.5): 9.3%
- % Other ([1]; HSA:compound molar ratio 1:1): 21.0%
- % α-Helix ([1]; HSA:compound molar ratio 1:1): 67.1%
- % β-Sheet ([1]; HSA:compound molar ratio 1:1): 2.5%
- % β-Turn ([1]; HSA:compound molar ratio 1:1): 9.3%
- % Other ([1]; HSA:compound molar ratio 1:2): 20.6%
- % α-Helix ([1]; HSA:compound molar ratio 1:2): 66.9%
- % β-Sheet ([1]; HSA:compound molar ratio 1:2): 3.2%
- % β-Turn ([1]; HSA:compound molar ratio 1:2): 9.3%
- % Other ([1]; HSA:compound molar ratio 1:3): 20.5%
- % α-Helix ([1]; HSA:compound molar ratio 1:3): 66.6%
- % β-Sheet ([1]; HSA:compound molar ratio 1:3): 3.7%
- % β-Turn ([1]; HSA:compound molar ratio 1:3): 9.3%
- % Other ([1]; HSA:compound molar ratio 1:5): 20.2%
- % α-Helix ([1]; HSA:compound molar ratio 1:5): 66.3%
- % β-Sheet ([1]; HSA:compound molar ratio 1:5): 4.3%
- % β-Turn ([1]; HSA:compound molar ratio 1:5): 9.2%
- melting point: 274 to 275 °C
- Ksv ([2]; T 297 K): 10.41 ± 1.08 ·10^4 dm^3·mol^−1
- kq ([2]; T 297 K): 10.41 ·10^12 dm^3·mol^−1·s^−1
- logKb ([2]; T 297 K): 2.71 ± 0.21
- Ksv ([2]; T 303 K): 11.41 ± 1.42 ·10^4 dm^3·mol^−1
- kq ([2]; T 303 K): 11.41 ·10^12 dm^3·mol^−1·s^−1
- logKb ([2]; T 303 K): 2.53 ± 0.15
- Ksv ([2]; T 308 K): 8.39 ± 1.24 ·10^4 dm^3·mol^−1
- kq ([2]; T 308 K): 8.39 ·10^12 dm^3·mol^−1·s^−1
- logKb ([2]; T 308 K): 2.35 ± 0.12
- IC50 [3]: 13.5 ± 0.02 µM
- Ksv ([4]; T 297 K): 5.55 ± 0.33 × 10^5 dm^3·mol^−1
- kq ([4]; T 297 K): 5.55 × 10^13 dm^3·mol^−1·s^−1
- n (number of binding sites) ([4]; T 297 K): 1.15 ± 0.06
- Ksv ([4]; T 303 K): 5.26 ± 0.28 × 10^5 dm^3·mol^−1
- kq ([4]; T 303 K): 5.26 × 10^13 dm^3·mol^−1·s^−1
- n (number of binding sites) ([4]; T 303 K): 1.10 ± 0.10
- Ksv ([4]; T 308 K): 4.75 ± 0.23 × 10^5 dm^3·mol^−1
- kq ([4]; T 308 K): 4.75 × 10^13 dm^3·mol^−1·s^−1
- n (number of binding sites) ([4]; T 308 K): 1.02 ± 0.05
- Kd ([4]; T 297 K): 0.263 µM
- Kd ([4]; T 303 K): 0.49 µM
- Kd ([4]; T 308 K): 1.45 µM
- ΔG° [4]: -9.001 kcal/mol
- ΔH° [4]: -27.77 kcal/mol
- ΔS° [4]: −264.38 J·mol^−1·K^−1

Structure (SMILES): Cc1c2c(OCC(=O)N/N=C/c3ccccc3)nn(C)c(=O)c2c(C)n1-c1cccc(Cl)c1 [Compound 5c, N-[(Z/E)-benzylideneamino]-2-[6-(3-chlorophenyl)-3,5,7-trimethyl-4-oxo-pyrrolo[3,4-d]pyridazin-1-yl]oxyacetamide]
- Change in % α-helix, (1:5) minus (1:0) [1]: −1.6%
- reduction in the percentage of α-helix [1]: 1.6%
- % Other ([1]; HSA:compound molar ratio 1:0.5): 19.6%
- % α-Helix ([1]; HSA:compound molar ratio 1:0.5): 68.4%
- % β-Sheet ([1]; HSA:compound molar ratio 1:0.5): 2.9%
- % β-Turn ([1]; HSA:compound molar ratio 1:0.5): 9.1%
- % Other ([1]; HSA:compound molar ratio 1:1): 20.3%
- % α-Helix ([1]; HSA:compound molar ratio 1:1): 68.0%
- % β-Sheet ([1]; HSA:compound molar ratio 1:1): 2.5%
- % β-Turn ([1]; HSA:compound molar ratio 1:1): 9.2%
- % Other ([1]; HSA:compound molar ratio 1:2): 19.8%
- % α-Helix ([1]; HSA:compound molar ratio 1:2): 67.8%
- % β-Sheet ([1]; HSA:compound molar ratio 1:2): 3.2%
- % β-Turn ([1]; HSA:compound molar ratio 1:2): 9.2%
- % Other ([1]; HSA:compound molar ratio 1:3): 19.7%
- % α-Helix ([1]; HSA:compound molar ratio 1:3): 67.8%
- % β-Sheet ([1]; HSA:compound molar ratio 1:3): 3.3%
- % β-Turn ([1]; HSA:compound molar ratio 1:3): 9.1%
- % Other ([1]; HSA:compound molar ratio 1:5): 20.0%
- % α-Helix ([1]; HSA:compound molar ratio 1:5): 67.3%
- % β-Sheet ([1]; HSA:compound molar ratio 1:5): 3.5%
- % β-Turn ([1]; HSA:compound molar ratio 1:5): 9.2%
- melting point: 273 to 275 °C
- Ksv ([2]; T 297 K): 15.87± 2.41 ·10^4 dm^3·mol^−1
- kq ([2]; T 297 K): 15.87 ·10^12 dm^3·mol^−1·s^−1
- logKb ([2]; T 297 K): 2.64 ± 0.16
- Ksv ([2]; T 303 K): 14.60 ± 2.05 ·10^4 dm^3·mol^−1
- kq ([2]; T 303 K): 14.60 ·10^12 dm^3·mol^−1·s^−1
- logKb ([2]; T 303 K): 2.47 ± 0.17
- Ksv ([2]; T 308 K): 9.99 ± 1.60 ·10^4 dm^3·mol^−1
- kq ([2]; T 308 K): 9.99 ·10^12 dm^3·mol^−1·s^−1
- logKb ([2]; T 308 K): 2.31 ± 0.20
- IC50 [3]: 12.7 ± 0.04 µM
- Ksv ([4]; T 297 K): 4.33± 0.25 × 10^5 dm^3·mol^−1
- kq ([4]; T 297 K): 4.33 × 10^13 dm^3·mol^−1·s^−1
- n (number of binding sites) ([4]; T 297 K): 0.92 ± 0.06
- Ksv ([4]; T 303 K): 3.86 ± 0.13 × 10^5 dm^3·mol^−1
- kq ([4]; T 303 K): 3.86 × 10^13 dm^3·mol^−1·s^−1
- n (number of binding sites) ([4]; T 303 K): 0.90 ± 0.02
- Ksv ([4]; T 308 K): 2.87 ± 0.12 × 10^5 dm^3·mol^−1
- kq ([4]; T 308 K): 2.87 × 10^13 dm^3·mol^−1·s^−1
- n (number of binding sites) ([4]; T 308 K): 0.85 ± 0.04
- Kd ([4]; T 297 K): 6.17 µM
- Kd ([4]; T 303 K): 8.91 µM
- Kd ([4]; T 308 K): 26.3 µM
- ΔG° [4]: -7.163 kcal/mol
- ΔH° [4]: -23.45 kcal/mol
- ΔS° [4]: −229.47 J·mol^−1·K^−1
